# Results as given in patent US11021467B2, “Phosphatidylinositol 3-kinase inhibitors” (Gilead Sciences, Inc., priority 2014, dated 2021).
# Columns and labels:
# Assay in all cases: TR-FRET enzymatic activity assay against PI3K isoforms
# Format in all cases: biochemical
# PI3Kδ = PI3Kδ (Homo sapiens (Human), UniProt O00329); details: 2×Km ATP, 30 minutes at 25° C.
# Source text: (§1) The compounds of formula (I) were characterized for their enzymatic activity against the PI3K isoforms. […] TR-FRET monitored the formation of 3,4,5-inositol triphosphate molecule that competed with fluorescently labeled PIP3 for binding to the GRP-1 pleckstrin homology domain protein.
# PI3Kβ = PI3Kβ (Homo sapiens (Human), UniProt P42338); details: for IC50: PI3Kβ, TR-FRET, 2×Km ATP, 30 minutes at 25° C.
# Source text: as §1
# PI3Kγ = PI3Kγ (Homo sapiens (Human), UniProt P48736); details: 2×Km ATP, 30 minutes at 25° C.
# Source text: as §1
# Chain of PI3Kδ (O00329 whole entry, the tested form may be a part, canonical isoform): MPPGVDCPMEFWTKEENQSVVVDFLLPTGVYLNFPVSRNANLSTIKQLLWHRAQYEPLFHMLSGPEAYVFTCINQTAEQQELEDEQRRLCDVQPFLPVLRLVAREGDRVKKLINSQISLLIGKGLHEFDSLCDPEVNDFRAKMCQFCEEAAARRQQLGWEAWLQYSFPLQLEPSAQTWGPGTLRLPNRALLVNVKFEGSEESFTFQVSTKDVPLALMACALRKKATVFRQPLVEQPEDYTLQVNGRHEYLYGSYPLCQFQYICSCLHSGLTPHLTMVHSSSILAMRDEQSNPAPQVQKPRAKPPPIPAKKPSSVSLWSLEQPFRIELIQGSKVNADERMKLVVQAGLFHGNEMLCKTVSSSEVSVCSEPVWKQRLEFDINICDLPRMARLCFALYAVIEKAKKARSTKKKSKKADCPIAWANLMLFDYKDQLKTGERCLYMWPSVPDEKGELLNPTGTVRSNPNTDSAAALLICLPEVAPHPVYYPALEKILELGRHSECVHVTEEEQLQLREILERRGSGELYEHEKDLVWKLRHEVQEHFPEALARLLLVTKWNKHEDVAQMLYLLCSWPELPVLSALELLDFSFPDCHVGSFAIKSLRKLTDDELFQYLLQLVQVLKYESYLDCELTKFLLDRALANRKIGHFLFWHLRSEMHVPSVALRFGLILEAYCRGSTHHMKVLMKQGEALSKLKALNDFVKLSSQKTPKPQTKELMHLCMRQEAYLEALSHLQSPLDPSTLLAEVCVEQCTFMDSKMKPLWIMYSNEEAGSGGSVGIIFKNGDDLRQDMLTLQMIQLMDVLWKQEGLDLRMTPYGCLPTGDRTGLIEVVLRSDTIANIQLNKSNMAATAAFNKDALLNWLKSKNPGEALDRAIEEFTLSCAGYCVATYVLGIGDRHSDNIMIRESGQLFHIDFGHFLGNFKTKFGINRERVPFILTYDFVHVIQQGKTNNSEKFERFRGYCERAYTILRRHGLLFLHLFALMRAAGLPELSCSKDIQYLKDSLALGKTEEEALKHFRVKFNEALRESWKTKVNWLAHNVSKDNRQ
# Chain of PI3Kδ (P27986 whole entry partner, the tested form may be a part, canonical isoform): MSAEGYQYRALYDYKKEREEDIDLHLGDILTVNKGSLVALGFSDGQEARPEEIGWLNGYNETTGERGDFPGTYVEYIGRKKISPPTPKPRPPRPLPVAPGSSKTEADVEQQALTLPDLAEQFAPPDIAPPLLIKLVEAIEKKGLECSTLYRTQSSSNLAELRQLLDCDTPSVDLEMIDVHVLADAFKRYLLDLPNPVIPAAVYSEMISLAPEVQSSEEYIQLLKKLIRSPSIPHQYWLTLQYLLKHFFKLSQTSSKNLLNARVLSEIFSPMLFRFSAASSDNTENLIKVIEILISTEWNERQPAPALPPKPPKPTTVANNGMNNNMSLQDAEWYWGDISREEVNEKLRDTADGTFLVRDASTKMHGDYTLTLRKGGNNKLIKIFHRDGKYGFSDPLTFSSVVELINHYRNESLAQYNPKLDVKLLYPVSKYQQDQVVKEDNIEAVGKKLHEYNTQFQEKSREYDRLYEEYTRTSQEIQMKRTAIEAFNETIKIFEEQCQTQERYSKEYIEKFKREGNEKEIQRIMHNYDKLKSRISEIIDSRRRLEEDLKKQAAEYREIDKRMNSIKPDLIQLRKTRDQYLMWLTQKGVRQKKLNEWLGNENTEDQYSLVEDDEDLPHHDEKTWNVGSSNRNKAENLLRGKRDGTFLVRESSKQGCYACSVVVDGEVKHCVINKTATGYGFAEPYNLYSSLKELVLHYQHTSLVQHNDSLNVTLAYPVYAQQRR
# Chain of PI3Kβ (P42338 whole entry): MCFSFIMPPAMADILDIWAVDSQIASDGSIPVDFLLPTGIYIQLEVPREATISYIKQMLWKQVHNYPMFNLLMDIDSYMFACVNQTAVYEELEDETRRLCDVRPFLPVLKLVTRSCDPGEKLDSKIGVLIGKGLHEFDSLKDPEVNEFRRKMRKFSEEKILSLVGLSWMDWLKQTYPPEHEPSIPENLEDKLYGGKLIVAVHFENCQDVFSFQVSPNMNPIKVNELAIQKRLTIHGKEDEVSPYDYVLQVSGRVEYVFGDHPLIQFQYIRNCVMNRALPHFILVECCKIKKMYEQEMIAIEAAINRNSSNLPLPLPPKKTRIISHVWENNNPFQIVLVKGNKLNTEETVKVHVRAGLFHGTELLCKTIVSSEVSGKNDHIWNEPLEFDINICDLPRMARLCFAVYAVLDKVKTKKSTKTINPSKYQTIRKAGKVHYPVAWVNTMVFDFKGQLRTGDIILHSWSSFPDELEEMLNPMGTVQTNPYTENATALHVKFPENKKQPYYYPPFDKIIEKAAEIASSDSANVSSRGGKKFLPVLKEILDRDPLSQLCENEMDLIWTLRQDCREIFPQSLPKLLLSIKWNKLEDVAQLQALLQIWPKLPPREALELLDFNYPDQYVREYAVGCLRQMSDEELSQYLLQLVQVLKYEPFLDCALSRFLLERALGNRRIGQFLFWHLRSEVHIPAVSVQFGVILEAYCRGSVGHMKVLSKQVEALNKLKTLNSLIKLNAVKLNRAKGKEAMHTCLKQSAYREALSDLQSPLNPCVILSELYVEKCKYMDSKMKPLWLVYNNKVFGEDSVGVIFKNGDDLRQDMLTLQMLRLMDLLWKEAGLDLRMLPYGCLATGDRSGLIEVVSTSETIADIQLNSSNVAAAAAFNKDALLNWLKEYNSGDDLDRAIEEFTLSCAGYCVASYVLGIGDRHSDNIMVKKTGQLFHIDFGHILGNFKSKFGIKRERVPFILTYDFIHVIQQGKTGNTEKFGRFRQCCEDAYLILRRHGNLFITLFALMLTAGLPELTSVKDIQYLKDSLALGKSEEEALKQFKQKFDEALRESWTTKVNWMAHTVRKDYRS
# Chain of PI3Kβ (P27986 whole entry partner): as the sequence (P27986 whole entry partner, the tested form may be a part, canonical isoform) above
# Chain of PI3Kγ (P48736 whole entry): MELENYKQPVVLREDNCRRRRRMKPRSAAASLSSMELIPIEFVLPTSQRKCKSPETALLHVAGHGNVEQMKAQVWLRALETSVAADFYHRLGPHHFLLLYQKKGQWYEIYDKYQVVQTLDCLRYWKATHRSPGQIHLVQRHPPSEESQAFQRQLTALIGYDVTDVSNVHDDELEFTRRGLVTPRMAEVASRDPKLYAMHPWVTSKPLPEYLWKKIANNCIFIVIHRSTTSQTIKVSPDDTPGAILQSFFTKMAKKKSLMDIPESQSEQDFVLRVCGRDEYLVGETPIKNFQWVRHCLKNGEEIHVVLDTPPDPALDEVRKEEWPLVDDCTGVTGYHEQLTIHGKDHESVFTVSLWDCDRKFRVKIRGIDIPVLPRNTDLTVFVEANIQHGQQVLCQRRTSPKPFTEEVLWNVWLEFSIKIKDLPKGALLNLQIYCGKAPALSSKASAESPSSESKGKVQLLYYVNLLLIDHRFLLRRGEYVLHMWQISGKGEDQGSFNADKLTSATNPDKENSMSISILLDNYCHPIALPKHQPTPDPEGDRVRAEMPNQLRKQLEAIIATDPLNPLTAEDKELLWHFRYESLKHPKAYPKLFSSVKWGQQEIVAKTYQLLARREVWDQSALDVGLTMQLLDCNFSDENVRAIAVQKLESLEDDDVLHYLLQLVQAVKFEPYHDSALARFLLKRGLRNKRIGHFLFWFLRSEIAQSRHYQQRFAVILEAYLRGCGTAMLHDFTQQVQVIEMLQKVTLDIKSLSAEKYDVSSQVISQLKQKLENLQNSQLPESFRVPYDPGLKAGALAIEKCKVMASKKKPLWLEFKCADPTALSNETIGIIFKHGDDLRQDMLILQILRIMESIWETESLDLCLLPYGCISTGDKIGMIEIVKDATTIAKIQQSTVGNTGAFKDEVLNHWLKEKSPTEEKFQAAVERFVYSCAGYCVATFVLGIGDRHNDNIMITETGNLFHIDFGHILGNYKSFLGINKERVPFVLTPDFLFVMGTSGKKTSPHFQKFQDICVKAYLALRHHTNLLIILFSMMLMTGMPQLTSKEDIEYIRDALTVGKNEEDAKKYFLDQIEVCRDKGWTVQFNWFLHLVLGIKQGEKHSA
IC50 (PI3Kδ) [nM],IC50 (PI3Kβ) [nM],IC50 (PI3Kγ) [nM],"PI3Kγ/PI3Kβ ratio (PI3Kβ; ratio of IC50 values, selectivity for PI3Kβ over PI3Kγ)",SMILES
7,200,≥ 10000,,"CC(CN)Cn1c([C@H](C)Nc2ncnc(N)c2C#N)nc2cccc(Cl)c2c1=O (stereo partly drawn) [Compound 27, 4-amino-6-(((1S)-1-(3-(3-amino-2-methylpropyl)-5-chloro-4-oxo-3,4-dihydroquinazolin-2-yl)ethyl)amino)pyrimidine-5-carbonitrile]"
3,100,≥ 10000,,"C[C@H](Nc1ncnc(N)c1C#N)c1nc2cccc(Cl)c2c(=O)n1CCCCN [Compound 28, (S)-4-amino-6-((1-(3-(4-aminobutyl)-5-chloro-4-oxo-3,4-dihydroquinazolin-2-yl)ethyl)amino)pyrimidine-5-carbonitrile]"
7,47,≥ 10000,,"Cc1cccc2nc([C@H](C)Nc3ncnc(N)c3C#N)n(CCCN)c(=O)c12 [Compound 29, (S)-4-amino-6-((1-(3-(3-aminopropyl)-5-methyl-4-oxo-3,4-dihydroquinazolin-2-yl)ethyl)amino)pyrimidine-5-carbonitrile]"
11,110,≥ 10000,,"C[C@H](Nc1ncnc(N)c1Cl)c1nc2cccc(Cl)c2c(=O)n1CCCN [Compound 30, (S)-2-(1-((6-amino-5-chloropyrimidin-4-yl)amino)ethyl)-3-(3-aminopropyl)-5-chloroquinazolin-4(3H)-one]"
6,47,≥ 10000,,"CNCCCn1c([C@H](C)Nc2ncnc(N)c2C#N)nc2cccc(Cl)c2c1=O [Compound 31, (S)-4-amino-6-((1-(5-chloro-3-(3-(methylamino)propyl)-4-oxo-3,4-dihydroquinazolin-2-yl)ethyl)amino)pyrimidine-5-carbonitrile]"
92,44,3200,,"C[C@H](NC(=O)c1c(N)nn2cccnc12)c1nc2cccc(Cl)c2c(=O)n1CCCN [Compound 32, (S)-2-amino-N-(1-(3-(3-aminopropyl)-5-chloro-4-oxo-3,4-dihydroquinazolin-2-yl)ethyl)pyrazolo[1,5-a]pyrimidine-3-carboxamide]"
210,2100,≥ 10000,,"CC(C)C[C@H](Nc1ncnc(N)c1C#N)c1nc2cccc(Cl)c2c(=O)n1CCCN [Compound 33, (S)-4-amino-6-((1-(3-(3-aminopropyl)-5-chloro-4-oxo-3,4-dihydroquinazolin-2-yl)-3-methylbutyl)amino)pyrimidine-5-carbonitrile]"
79,250,≥ 10000,,"CC[C@H](Nc1ncnc(N)c1C#N)c1nc2cccc(Cl)c2c(=O)n1CCCN [Compound 34, (S)-4-amino-6-((1-(3-(3-aminopropyl)-5-chloro-4-oxo-3,4-dihydroquinazolin-2-yl)propyl)amino)pyrimidine-5-carbonitrile]"
21,110,≥ 10000,,"NCCCn1c([C@@H](Nc2ncnn3ccnc23)C2CC2)nc2cccc(Cl)c2c1=O [Compound 35, (S)-3-(3-aminopropyl)-5-chloro-2-(cyclopropyl(imidazo[2,1-][1,2,4]triazin-4-ylamino)methyl)quinazolin-4(3H)-one]"
27,71,8200,,"CC[C@H](Nc1nc(N)nc(N)c1C#N)c1nc2cccc(Cl)c2c(=O)n1CCCN [Compound 36, (S)-2,4-diamino-6-((1-(3-(3-aminopropyl)-5-chloro-4-oxo-3,4-dihydroquinazolin-2-yl)propyl)amino)pyrimidine-5-carbonitrile]"
16,57,4800,,"NCCCn1c([C@@H](Nc2ncnc3cccnc23)C2CC2)nc2cccc(Cl)c2c1=O [Compound 37, (S)-3-(3-aminopropyl)-5-chloro-2-(cyclopropyl(pyrido[3,2-d]pyrimidin-4-ylamino)methyl)quinazolin-4(3H)-one]"
12,44,≥ 10000,,"NCCCn1c([C@@H](Nc2nc(N)nc(N)c2Cl)C2CC2)nc2cccc(Cl)c2c1=O [Compound 38, (S)-3-(3-aminopropyl)-5-chloro-2-(cyclopropyl((2,6-diamino-5-chloropyrimidin-4-yl)amino)methyl)quinazolin-4(3H)-one]"
3,25,2400,,"CNCCCn1c([C@H](C)Nc2nc(N)nc(N)c2C#N)nc2cccc(Cl)c2c1=O [Compound 39, (S)-2,4-diamino-6-((1-(5-chloro-3-(3-(methylamino)propyl)-4-oxo-3,4-dihydroquinazolin-2-yl)ethyl)amino)pyrimidine-5-carbonitrile]"
9,21,≥ 10000,,"N#Cc1c(N)ncnc1N[C@H](c1nc2cccc(Cl)c2c(=O)n1CCCN)C1CC1 [Compound 40, (S)-4-amino-6-(((3-(3-aminopropyl)-5-chloro-4-oxo-3,4-dihydroquinazolin-2-yl)(cyclopropyl)methyl)amino)pyrimidine-5-carbonitrile]"
3,15,1800,,"CNCCCn1c([C@H](C)Nc2nc(N)nc(C)c2C#N)nc2cccc(Cl)c2c1=O [Compound 41, (S)-2-amino-4-((1-(5-chloro-3-(3-(methylamino)propyl)-4-oxo-3,4-dihydroquinazolin-2-yl)ethyl)amino)-6-methylpyrimidine-5-carbonitrile]"
2,15,1400,,"C[C@H](Nc1nc(N)nc(N)c1C#N)c1nc2cccc(Cl)c2c(=O)n1CCCN [Compound 42, (S)-2,4-diamino-6-((1-(3-(3-aminopropyl)-5-chloro-4-oxo-3,4-dihydroquinazolin-2-yl)ethyl)amino)pyrimidine-5-carbonitrile]"
6,7,3400,,"NCCCn1c([C@@H](Nc2ncnc3[nH]cc(Br)c23)C2CC2)nc2cccc(Cl)c2c1=O [Compound 43, (S)-3-(3-aminopropyl)-2-(((5-bromo-7H-pyrrolo[2,3-d]pyrimidin-4-yl)amino)(cyclopropyl)methyl)-5-chloroquinazolin-4(3H)-one]"
11,8,6000,,"N#Cc1c(Cl)nc(N)nc1N[C@H](c1nc2cccc(Cl)c2c(=O)n1CCCN)C1CC1 [Compound 44, (S)-2-amino-4-(((3-(3-aminopropyl)-5-chloro-4-oxo-3,4-dihydroquinazolin-2-yl)(cyclopropyl)methyl)amino)-6-chloropyrimidine-5-carbonitrile]"
4,7,2100,,"NCCCn1c([C@@H](Nc2ncnc3scnc23)C2CC2)nc2cccc(Cl)c2c1=O [Compound 45, (S)-3-(3-aminopropyl)-5-chloro-2-(cyclopropyl(thiazolo[5,4-d]pyrimidin-7-ylamino)methyl)quinazolin-4(3H)-one]"
3,6,2500,,"CNCCCn1c([C@@H](Nc2nc(N)nc(N)c2C#N)C2CC2)nc2cccc(Cl)c2c1=O [Compound 46, (S)-2,4-diamino-6-(((5-chloro-3-(3-(methylamino)propyl)-4-oxo-3,4-dihydroquinazolin-2-yl)(cyclopropyl)methyl)amino)pyrimidine-5-carbonitrile]"
3,5,1100,230,"N#Cc1c(N)nc(N)nc1N[C@H](c1nc2cccc(Cl)c2c(=O)n1CCCN)C1CC1 [Compound 47, (S)-2,4-diamino-6-(((3-(3-aminopropyl)-5-chloro-4-oxo-3,4-dihydroquinazolin-2-yl)(cyclopropyl)methyl)amino)pyrimidine-5-carbonitrile]"
4,4,900,,"NCCCn1c([C@@H](Nc2ncnc3ccc(Cl)nc23)C2CC2)nc2cccc(Cl)c2c1=O [Compound 48, (S)-3-(3-aminopropyl)-5-chloro-2-(((6-chloropyrido[3,2-d]pyrimidin-4-yl)amino)(cyclopropyl)methyl)quinazolin-4(3H)-one]"
1,1,750,,"Cc1nc(N)nc(N[C@H](c2nc3cccc(Cl)c3c(=O)n2CCCN)C2CC2)c1C#N [Compound 49, (S)-2-amino-4-(((3-(3-aminopropyl)-5-chloro-4-oxo-3,4-dihydroquinazolin-2-yl)(cyclopropyl)methyl)amino)-6-methylpyrimidine-5-carbonitrile]"
71,75,4600,,"C[C@H](NC(=O)c1nc(Br)c(N)nc1N)c1nc2cccc(Cl)c2c(=O)n1CCCN [Compound 50, (S)-3,5-diamino-N-(1-(3-(3-aminopropyl)-5-chloro-4-oxo-3,4-dihydroquinazolin-2-yl)ethyl)-6-bromopyrazine-2-carboxamide]"
8,110,5500,,"CC(=O)NCCCn1c([C@H](C)Nc2ncnc(N)c2C#N)nc2cccc(Cl)c2c1=O [Compound 51, (S)—N-(3-(2-(1-((6-amino-5-cyanopyrimidin-4-yl)amino)ethyl)-5-chloro-4-oxoquinazolin-3(4H)-yl)propyl)acetamide]"
4,29,1200,,"CC(C)(C)C(=O)NCCCn1c([C@@H](Nc2nc(N)nc(N)c2C#N)C2CC2)nc2cccc(Cl)c2c1=O [Compound 52, (S)—N-(3-(5-chloro-2-(cyclopropyl((2,6-diamino-5-cyanopyrimidin-4-yl)amino)methyl)-4-oxoquinazolin-3(4H)-yl)propyl)pivalamide]"
